“Also recorded” adds a separate entry of the source.
Columns and labels:
[1] = molecular target: QC activity in serum (Homo sapiens, UniProt Q16769); details: after single and multiple doses
[2] = molecular target: QC activity in CSF (Homo sapiens, UniProt Q16769); details: after single and multiple doses
Chain of QC activity in CSF (Q16769 29-361): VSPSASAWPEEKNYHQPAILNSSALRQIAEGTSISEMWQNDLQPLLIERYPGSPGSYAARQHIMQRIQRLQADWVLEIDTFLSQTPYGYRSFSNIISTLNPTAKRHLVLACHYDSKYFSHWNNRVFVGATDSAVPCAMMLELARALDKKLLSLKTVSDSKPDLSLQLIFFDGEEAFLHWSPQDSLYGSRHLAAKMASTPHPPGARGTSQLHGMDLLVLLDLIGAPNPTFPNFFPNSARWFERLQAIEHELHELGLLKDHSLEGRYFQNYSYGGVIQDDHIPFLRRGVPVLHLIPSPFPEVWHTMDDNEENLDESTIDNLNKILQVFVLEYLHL

Chain of QC activity in serum (Q16769 29-361): as above

CCCOc1ccc([C@H]2CNC(=O)N2c2ccc3[nH]cnc3c2)cc1 [PQ912]
QC activity in serum [1]: inhibited in a dose-related manner; also recorded: decreased in a dose-related manner | QC activity in CSF [2]: inhibited in a dose-related manner; also recorded: decreased in a dose-related manner
